Measured values from article PMC6430112 (Xenobiotica; the fate of foreign compounds in biological …, 2018).
“And” between values parts separate entries of the source, which are not always exact repeats. Identical values can stand only once.

Tests used:
[1] = target: T1, CYP1A2 (Homo sapiens, UniProt P05177); assay: Oxidation by purified CYP1A2 in reconstituted monooxygenase system, LC-MS/MS; assay type: in vitro ADME; settings: substrate flavanone
T1 sequence (P05177 1-516): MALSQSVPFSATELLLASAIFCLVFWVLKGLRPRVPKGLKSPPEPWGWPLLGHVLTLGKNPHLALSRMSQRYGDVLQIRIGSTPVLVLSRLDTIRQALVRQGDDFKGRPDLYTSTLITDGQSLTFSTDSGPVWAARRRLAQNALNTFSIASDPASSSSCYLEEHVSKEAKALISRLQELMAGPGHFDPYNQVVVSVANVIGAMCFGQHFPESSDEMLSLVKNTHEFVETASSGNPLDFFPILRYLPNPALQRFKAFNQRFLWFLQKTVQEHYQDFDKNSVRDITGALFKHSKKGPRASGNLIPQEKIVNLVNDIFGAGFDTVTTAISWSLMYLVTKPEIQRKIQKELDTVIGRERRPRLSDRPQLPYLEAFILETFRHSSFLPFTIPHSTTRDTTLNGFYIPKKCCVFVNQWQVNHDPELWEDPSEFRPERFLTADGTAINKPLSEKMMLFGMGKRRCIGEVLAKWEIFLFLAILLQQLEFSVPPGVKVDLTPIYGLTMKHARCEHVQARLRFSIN

[2] = system: rat liver microsomes; settings: ref Kagawa et al. (2004); cited from earlier work
[3] = target: T2, CYP2A13 (Homo sapiens, UniProt Q16696); assay: Oxidation by purified CYP2A13 in reconstituted monooxygenase system, LC-MS/MS; assay type: in vitro ADME; settings: substrate flavanone
T2 sequence (Q16696 1-494): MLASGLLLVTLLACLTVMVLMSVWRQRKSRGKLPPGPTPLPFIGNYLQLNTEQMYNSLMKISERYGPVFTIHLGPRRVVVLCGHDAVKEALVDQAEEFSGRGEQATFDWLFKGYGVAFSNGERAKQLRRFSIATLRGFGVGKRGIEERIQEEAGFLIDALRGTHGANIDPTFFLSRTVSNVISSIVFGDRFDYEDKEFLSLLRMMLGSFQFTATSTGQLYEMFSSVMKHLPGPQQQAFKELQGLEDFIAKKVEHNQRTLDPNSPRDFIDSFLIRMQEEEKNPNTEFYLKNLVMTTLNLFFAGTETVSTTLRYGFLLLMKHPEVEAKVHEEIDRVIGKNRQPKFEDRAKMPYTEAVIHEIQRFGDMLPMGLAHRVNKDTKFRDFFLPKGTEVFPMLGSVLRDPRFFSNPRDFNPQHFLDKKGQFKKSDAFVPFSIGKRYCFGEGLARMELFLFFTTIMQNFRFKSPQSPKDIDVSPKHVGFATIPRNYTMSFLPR

[4] = target: CYP2C9 (Homo sapiens, UniProt P11712); assay: Oxidation by purified CYP2C9 in reconstituted monooxygenase system, LC-MS/MS; assay type: in vitro ADME; settings: substrate flavanone
CYP2C9, sequence (P11712 whole entry): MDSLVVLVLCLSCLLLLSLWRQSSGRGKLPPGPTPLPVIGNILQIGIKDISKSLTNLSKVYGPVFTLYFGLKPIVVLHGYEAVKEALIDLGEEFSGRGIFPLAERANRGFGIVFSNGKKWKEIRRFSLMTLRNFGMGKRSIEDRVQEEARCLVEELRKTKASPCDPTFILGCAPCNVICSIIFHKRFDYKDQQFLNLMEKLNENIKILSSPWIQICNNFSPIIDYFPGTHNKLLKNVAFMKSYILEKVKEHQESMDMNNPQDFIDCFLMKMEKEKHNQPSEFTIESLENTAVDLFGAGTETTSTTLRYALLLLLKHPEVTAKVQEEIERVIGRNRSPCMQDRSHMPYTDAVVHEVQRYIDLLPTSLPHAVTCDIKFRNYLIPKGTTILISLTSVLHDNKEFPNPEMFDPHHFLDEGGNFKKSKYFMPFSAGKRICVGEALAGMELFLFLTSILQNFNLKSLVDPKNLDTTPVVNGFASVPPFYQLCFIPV

[5] = target: T3, CYP1A1 (Homo sapiens, UniProt P04798); assay: Oxidation by purified CYP1A1 in reconstituted monooxygenase system, LC-MS/MS; assay type: in vitro ADME; settings: substrate flavanone
T3 sequence (P04798 1-512): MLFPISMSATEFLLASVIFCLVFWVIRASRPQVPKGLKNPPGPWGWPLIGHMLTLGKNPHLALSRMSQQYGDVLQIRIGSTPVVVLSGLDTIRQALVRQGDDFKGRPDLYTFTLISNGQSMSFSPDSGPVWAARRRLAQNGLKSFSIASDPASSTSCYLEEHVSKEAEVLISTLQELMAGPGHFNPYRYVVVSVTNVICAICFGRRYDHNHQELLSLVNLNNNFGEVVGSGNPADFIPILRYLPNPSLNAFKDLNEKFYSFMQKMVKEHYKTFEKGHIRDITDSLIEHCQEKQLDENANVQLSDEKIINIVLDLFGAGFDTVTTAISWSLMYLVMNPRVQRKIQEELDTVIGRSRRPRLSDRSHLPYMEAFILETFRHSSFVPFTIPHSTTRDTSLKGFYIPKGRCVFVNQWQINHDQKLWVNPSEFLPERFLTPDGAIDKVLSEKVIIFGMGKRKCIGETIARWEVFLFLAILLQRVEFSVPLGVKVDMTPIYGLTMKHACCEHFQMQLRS

[6] = system: wild-type CYP2A6; settings: substrate flavanone, ref Uno et al. (2013; 2015); cited from earlier work
[7] = target: T4, CYP2A6 (Homo sapiens, UniProt P11509); assay: Oxidation by purified CYP2A6 in reconstituted monooxygenase system, LC-MS/MS; assay type: in vitro ADME; settings: substrate flavanone
T4 sequence (P11509 1-494): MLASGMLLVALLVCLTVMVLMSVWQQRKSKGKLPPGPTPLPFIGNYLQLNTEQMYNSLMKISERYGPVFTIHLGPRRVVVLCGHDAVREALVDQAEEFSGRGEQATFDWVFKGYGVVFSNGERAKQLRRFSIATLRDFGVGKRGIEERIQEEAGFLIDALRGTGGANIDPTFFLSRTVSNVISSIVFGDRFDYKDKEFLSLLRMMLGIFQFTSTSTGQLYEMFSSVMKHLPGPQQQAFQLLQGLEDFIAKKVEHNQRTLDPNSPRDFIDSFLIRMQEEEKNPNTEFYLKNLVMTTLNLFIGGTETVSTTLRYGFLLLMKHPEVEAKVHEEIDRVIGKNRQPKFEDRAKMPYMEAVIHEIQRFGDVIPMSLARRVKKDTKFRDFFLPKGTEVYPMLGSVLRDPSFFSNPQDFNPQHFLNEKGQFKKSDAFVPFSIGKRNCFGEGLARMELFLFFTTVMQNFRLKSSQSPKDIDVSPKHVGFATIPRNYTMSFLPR

[8] = target: T5, CYP1B1 (Homo sapiens, UniProt Q16678); assay: Oxidation by purified CYP1B1 in reconstituted monooxygenase system, LC-MS/MS; assay type: in vitro ADME; settings: substrate flavanone
T5 sequence (Q16678 1-543): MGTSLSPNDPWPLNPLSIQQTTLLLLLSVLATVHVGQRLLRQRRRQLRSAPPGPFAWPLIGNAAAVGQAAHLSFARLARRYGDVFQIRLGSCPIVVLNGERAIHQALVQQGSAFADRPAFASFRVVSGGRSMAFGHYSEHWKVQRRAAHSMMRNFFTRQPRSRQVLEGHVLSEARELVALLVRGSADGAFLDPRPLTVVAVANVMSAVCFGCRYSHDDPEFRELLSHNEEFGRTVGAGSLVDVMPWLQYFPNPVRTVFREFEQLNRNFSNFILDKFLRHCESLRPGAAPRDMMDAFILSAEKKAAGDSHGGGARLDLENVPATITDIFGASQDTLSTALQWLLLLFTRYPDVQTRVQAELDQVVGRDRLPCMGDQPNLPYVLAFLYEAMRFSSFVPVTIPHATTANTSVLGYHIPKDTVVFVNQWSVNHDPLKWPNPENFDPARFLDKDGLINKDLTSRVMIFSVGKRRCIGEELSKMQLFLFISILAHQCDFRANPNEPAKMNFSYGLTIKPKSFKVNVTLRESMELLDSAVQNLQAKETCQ

[9] = target: CYP3A4 (Homo sapiens, UniProt P08684); assay: Oxidation by purified CYP3A4 in reconstituted monooxygenase system, LC-MS/MS; assay type: in vitro ADME; settings: substrate flavanone
CYP3A4, sequence (P08684 whole entry): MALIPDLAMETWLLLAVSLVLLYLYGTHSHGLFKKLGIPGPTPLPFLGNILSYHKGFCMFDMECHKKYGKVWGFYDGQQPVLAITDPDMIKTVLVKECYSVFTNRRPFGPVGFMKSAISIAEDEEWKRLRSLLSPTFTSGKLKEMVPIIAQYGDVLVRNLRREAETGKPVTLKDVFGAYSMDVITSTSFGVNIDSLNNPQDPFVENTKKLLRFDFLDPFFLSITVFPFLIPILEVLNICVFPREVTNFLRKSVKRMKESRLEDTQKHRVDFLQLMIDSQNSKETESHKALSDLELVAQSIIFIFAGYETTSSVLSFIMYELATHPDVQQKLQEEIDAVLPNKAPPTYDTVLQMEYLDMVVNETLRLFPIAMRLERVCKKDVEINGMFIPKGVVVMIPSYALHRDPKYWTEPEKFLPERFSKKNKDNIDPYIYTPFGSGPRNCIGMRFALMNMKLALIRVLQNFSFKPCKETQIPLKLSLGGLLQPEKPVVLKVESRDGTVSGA

Formation of flavone and hydroxylated products: 2´-OHFva [1]: 0.074 ± 0.012 nmol/min/nmol P450 | Formation of flavone and hydroxylated products: 3´-OHFva [1]: 0.117 ± 0.023 nmol/min/nmol P450 | Formation of flavone and hydroxylated products: 4’´-OHFva [1]: 0.33 ± 0.05 nmol/min/nmol P450 | Formation of flavone and hydroxylated products: 6OHF [1]: <0.001 nmol/min/nmol P450 | Formation of flavone and hydroxylated products: 6OHFva [1]: 0.19 ± 0.02 nmol/min/nmol P450 | Formation of flavone and hydroxylated products: 7OHF [1]: 0.002 ± 0.002 nmol/min/nmol P450 | Formation of flavone and hydroxylated products: 7OHFva [1]: 0.009 ± 0.001 nmol/min/nmol P450 | Formation of flavone and hydroxylated products: Flavone [1]: 0.008 ± 0.001 nmol/min/nmol P450 | Formation of flavone and hydroxylated products: 2´-OHFva [3]: 0.027 ± 0.002 nmol/min/nmol P450 | Formation of flavone and hydroxylated products: 3´-OHFva [3]: 0.011 ± 0.004 nmol/min/nmol P450 | Formation of flavone and hydroxylated products: 4’´-OHFva [3]: 0.013 ± 0.001 nmol/min/nmol P450 | Formation of flavone and hydroxylated products: 6OHF [3]: 0.004 ± 0.001 nmol/min/nmol P450 | Formation of flavone and hydroxylated products: 6OHFva [3]: 0.17 ± 0.01 nmol/min/nmol P450 | Formation of flavone and hydroxylated products: 7OHF [3]: <0.001 nmol/min/nmol P450 | Formation of flavone and hydroxylated products: 7OHFva [3]: 0.005 ± 0.001 nmol/min/nmol P450 | Formation of flavone and hydroxylated products: Flavone [3]: 0.29 ± 0.02 nmol/min/nmol P450 | Turnover rate of flavone formation [3]: 0.29 min⁻¹ | Formation of flavone and hydroxylated products: 2´-OHFva [4]: 0.012 ± 0.001 nmol/min/nmol P450 | Formation of flavone and hydroxylated products: 3´-OHFva [4]: 0.003± 0.001 nmol/min/nmol P450 | Formation of flavone and hydroxylated products: 4’´-OHFva [4]: 0.040± 0.001 nmol/min/nmol P450 | Formation of flavone and hydroxylated products: 6OHF [4]: <0.001 nmol/min/nmol P450 | Formation of flavone and hydroxylated products: 6OHFva [4]: 0.091± 0.001 nmol/min/nmol P450 | Formation of flavone and hydroxylated products: 7OHF [4]: <0.001 nmol/min/nmol P450 | Formation of flavone and hydroxylated products: 7OHFva [4]: <0.001 nmol/min/nmol P450 | Formation of flavone and hydroxylated products: Flavone [4]: 0.009 ± 0.002 nmol/min/nmol P450 | Formation of flavone and hydroxylated products: 2´-OHFva [5]: 0.008 ± 0.004 nmol/min/nmol P450 | Formation of flavone and hydroxylated products: 3´-OHFva [5]: 0.004 ± 0.002 nmol/min/nmol P450 | Formation of flavone and hydroxylated products: 4’´-OHFva [5]: 0.074 ± 0.002 nmol/min/nmol P450 | Formation of flavone and hydroxylated products: 6OHF [5]: 0.002 ± 0.001 nmol/min/nmol P450 | Formation of flavone and hydroxylated products: 6OHFva [5]: 0.058 ± 0.008 nmol/min/nmol P450 | Formation of flavone and hydroxylated products: 7OHF [5]: <0.001 nmol/min/nmol P450 | Formation of flavone and hydroxylated products: 7OHFva [5]: 0.007 ± 0.003 nmol/min/nmol P450 | Formation of flavone and hydroxylated products: Flavone [5]: 0.053 ± 0.003 nmol/min/nmol P450 | Formation of flavone and hydroxylated products: 2´-OHFva ([7]; CYP2A6): 4.76 ± 0.32 nmol/min/nmol P450 | Formation of flavone and hydroxylated products: 3´-OHFva ([7]; CYP2A6): 0.031 ± 0.003 nmol/min/nmol P450 | Formation of flavone and hydroxylated products: 4’´-OHFva ([7]; CYP2A6): 0.20 ± 0.01 nmol/min/nmol P450 | Formation of flavone and hydroxylated products: 6OHF ([7]; CYP2A6): 0.003 ± 0.001 nmol/min/nmol P450 | Formation of flavone and hydroxylated products: 6OHFva ([7]; CYP2A6): 1.29 ± 0.08 nmol/min/nmol P450 | Formation of flavone and hydroxylated products: 7OHF ([7]; CYP2A6): <0.001 nmol/min/nmol P450 | Formation of flavone and hydroxylated products: 7OHFva ([7]; CYP2A6): <0.001 nmol/min/nmol P450 | Formation of flavone and hydroxylated products: Flavone ([7]; CYP2A6): 0.72 ± 0.06 nmol/min/nmol P450 | Turnover number of 2´OHFva formation ([7]; CYP2A6): 4.8 nmol/min/nmol CYP2A6 | Turnover number of 6OHFva formation ([7]; CYP2A6): 1.3 nmol/min/nmol CYP2A6 | Turnover number of flavone formation ([7]; CYP2A6): 0.72 nmol/min/nmol CYP2A6 | Turnover rate of 2´-hydroxyflavanone formation ([7]; CYP2A6): 4.8 min⁻¹ and 4.76 min⁻¹ | Turnover rate of 6-hydroxyflavanone formation ([7]; CYP2A6): 1.3 min⁻¹ and 1.29 min⁻¹ | Turnover rate of flavone formation ([7]; CYP2A6): 0.72 min⁻¹ | Flavone formation turnover rate by CYP2A6 relative to CYP2A13 ([7]; CYP2A6 higher than CYP2A13): ~ 3 fold | Formation of flavone and hydroxylated products: 2´-OHFva [8]: 0.046 ± 0.009 nmol/min/nmol P450 | Formation of flavone and hydroxylated products: 3´-OHFva [8]: 0.013 ± 0.002 nmol/min/nmol P450 | Formation of flavone and hydroxylated products: 4’´-OHFva [8]: 0.19 ± 0.04 nmol/min/nmol P450 | Formation of flavone and hydroxylated products: 6OHF [8]: 0.002 ± 0.001 nmol/min/nmol P450 | Formation of flavone and hydroxylated products: 6OHFva [8]: 0.33 ± 0.05 nmol/min/nmol P450 | Formation of flavone and hydroxylated products: 7OHF [8]: <0.001 nmol/min/nmol P450 | Formation of flavone and hydroxylated products: 7OHFva [8]: 0.003 ± 0.001 nmol/min/nmol P450 | Formation of flavone and hydroxylated products: Flavone [8]: 0.046 ± 0.002 nmol/min/nmol P450 | Formation of flavone and hydroxylated products: 2´-OHFva [9]: <0.001 nmol/min/nmol P450 | Formation of flavone and hydroxylated products: 3´-OHFva [9]: <0.001 nmol/min/nmol P450 | Formation of flavone and hydroxylated products: 4’´-OHFva [9]: <0.001 nmol/min/nmol P450 | Formation of flavone and hydroxylated products: 6OHF [9]: <0.001 nmol/min/nmol P450 | Formation of flavone and hydroxylated products: 6OHFva [9]: <0.001 nmol/min/nmol P450 | Formation of flavone and hydroxylated products: 7OHF [9]: <0.001 nmol/min/nmol P450 | Formation of flavone and hydroxylated products: 7OHFva [9]: <0.001 nmol/min/nmol P450 | Formation of flavone and hydroxylated products: Flavone [9]: 0.057 ± 0.011 nmol/min/nmol P450
SMILES: O=C1CC(c2ccccc2)Oc2ccccc21 (stereo not drawn) [flavanone]
Kinetic deuterium isotope effect for conversion of flavanone to flavone [2]: 1.5 | Turnover number of formation of 2´-hydroxyflavanone [6]: 0.32 min⁻¹
